Measurements published in paper PMC11579541, “In vitro, in vivo, and in silico approaches for evaluating the preclinical DMPK profiles of ammoxetine, a novel chiral serotonin and norepinephrine reuptake inhibitor” (Frontiers in Pharmacology, 2024).

What was measured:
CYP 2C19 = CYP 2C19 (Homo sapiens, UniProt P33261); test: CYP inhibition, cocktail-substrate method in HLM; format: in vitro ADME; set-up: 0.5 mg/mL HLM, 1 mmol/L NADPH, and a cocktail of 10 probe substrates for 9 CYP isoforms; tissue BD (Woburn, USA); host or cells: pooled human liver microsomes; settings: probe S-mephenytoin
CYP 2C19, sequence (P33261 whole entry, canonical isoform): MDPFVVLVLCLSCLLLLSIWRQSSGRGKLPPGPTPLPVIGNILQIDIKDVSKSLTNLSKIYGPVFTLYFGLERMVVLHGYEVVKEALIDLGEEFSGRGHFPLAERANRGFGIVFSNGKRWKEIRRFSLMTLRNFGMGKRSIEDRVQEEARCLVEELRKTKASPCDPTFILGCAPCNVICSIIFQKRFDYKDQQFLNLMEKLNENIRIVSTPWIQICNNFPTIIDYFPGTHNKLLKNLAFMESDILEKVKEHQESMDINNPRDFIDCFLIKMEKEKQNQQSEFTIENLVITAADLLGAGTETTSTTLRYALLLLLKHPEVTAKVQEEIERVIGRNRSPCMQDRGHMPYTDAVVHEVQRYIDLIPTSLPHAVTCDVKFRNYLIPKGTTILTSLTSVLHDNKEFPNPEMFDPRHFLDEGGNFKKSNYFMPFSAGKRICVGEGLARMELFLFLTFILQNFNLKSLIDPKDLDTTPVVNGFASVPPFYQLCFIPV
Procedure: (§1) To assess the CYP inhibition profiling of ammoxetine, a high-throughput assay based on the cocktail-substrate method was performed, as described in the literature ([Kim et al., 2005]; [Kozakai et al., 2014]). Microsomal incubations were conducted in triplicate for 30 min at 37°C in a reaction system (200 μL) consisting of […] potassium phosphate buffer (pH 7.4), 0.5 mg/mL HLM, 1 mmol/L NADPH, and a cocktail of 10 probe substrates for 9 CYP isoforms. The final concentration of each CYP-specific substrate was chosen to be close to the Michaelis-Menten constant (K m ) value of the respective substrate ([Kim et al., 2005]; [Lee et al., 2024]). For instance, phenacetin (CYP 1A2) was used at a concentration of 50 μmol/L, coumarin (CYP 2A6) at 5 μmol/L, bupropion (CYP 2B6) at 50 μmol/L, amodiaquine (CYP 2C8) at 5 μmol/L, tolbutamide (CYP 2C9) at 100 μmol/L, S-mephenytoin (CYP 2C19) at 100 μmol/L, dextromethorphan (CYP 2D6) at 5 μmol/L, chlorzoxazone (CYP 2E1) at 50 μmol/L, and testosterone and midazolam (CYP 3A4) at 50 μmol/L. Ammoxetine was evaluated at five concentrations: 0.1, 1, 10, 50, and 100 μmol/L. Additionally, a blank control without ammoxetine was included. The incubation was terminated by adding an equal volume of ice-cold acetonitrile/methanol (1:1, v/v) along with the IS, dexmedetomidine (1 ng/mL). After a 20-fold dilution, the mixture was centrifuged at 13,800×g for 10 min at 4°C. The supernatants were used to measure the levels of metabolites from the respective probe substrates using an LC-MS-MS method. The half-maximal inhibitory concentration (IC50) values were subsequently calculated.

CYP 3A4 = CYP 3A4 (Homo sapiens, UniProt P08684); test: CYP inhibition, cocktail-substrate method in HLM; format: in vitro ADME; set-up: 0.5 mg/mL HLM, 1 mmol/L NADPH, and a cocktail of 10 probe substrates for 9 CYP isoforms; tissue BD (Woburn, USA); host or cells: pooled human liver microsomes; settings: probes testosterone and midazolam
CYP 3A4, sequence (P08684 whole entry, canonical isoform): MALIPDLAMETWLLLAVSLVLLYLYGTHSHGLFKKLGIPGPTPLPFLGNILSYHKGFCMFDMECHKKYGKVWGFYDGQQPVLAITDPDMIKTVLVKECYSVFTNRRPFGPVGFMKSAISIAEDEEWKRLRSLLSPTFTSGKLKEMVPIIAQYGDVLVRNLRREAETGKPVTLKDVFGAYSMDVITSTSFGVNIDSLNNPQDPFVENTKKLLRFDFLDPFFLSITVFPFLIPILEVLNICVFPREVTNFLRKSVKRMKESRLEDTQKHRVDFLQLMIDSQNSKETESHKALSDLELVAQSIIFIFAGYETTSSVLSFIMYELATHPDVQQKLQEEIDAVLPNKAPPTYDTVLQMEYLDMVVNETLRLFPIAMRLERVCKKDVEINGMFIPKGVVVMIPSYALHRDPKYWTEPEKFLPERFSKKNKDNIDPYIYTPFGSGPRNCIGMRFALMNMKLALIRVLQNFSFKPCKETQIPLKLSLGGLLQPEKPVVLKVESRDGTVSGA
Procedure: as §1

CYP 2C9 = CYP 2C9 (Homo sapiens, UniProt P11712); test: CYP inhibition, cocktail-substrate method in HLM; format: in vitro ADME; set-up: 0.5 mg/mL HLM, 1 mmol/L NADPH, and a cocktail of 10 probe substrates for 9 CYP isoforms; tissue BD (Woburn, USA); host or cells: pooled human liver microsomes; settings: probe tolbutamide
CYP 2C9, sequence (P11712 whole entry, canonical isoform): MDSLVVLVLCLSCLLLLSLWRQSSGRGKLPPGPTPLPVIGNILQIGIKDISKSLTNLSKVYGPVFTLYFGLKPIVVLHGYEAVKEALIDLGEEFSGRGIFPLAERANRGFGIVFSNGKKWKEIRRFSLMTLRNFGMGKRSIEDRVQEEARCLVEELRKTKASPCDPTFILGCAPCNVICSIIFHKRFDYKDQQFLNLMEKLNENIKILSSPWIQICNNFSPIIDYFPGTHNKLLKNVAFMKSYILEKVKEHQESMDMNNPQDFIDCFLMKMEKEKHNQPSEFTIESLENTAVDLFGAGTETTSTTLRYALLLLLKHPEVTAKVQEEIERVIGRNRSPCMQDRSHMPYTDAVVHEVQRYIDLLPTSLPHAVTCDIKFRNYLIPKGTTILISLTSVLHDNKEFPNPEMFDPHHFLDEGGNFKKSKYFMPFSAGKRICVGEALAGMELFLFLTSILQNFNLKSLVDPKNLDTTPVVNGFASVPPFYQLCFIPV
Procedure: as §1

MLM = test: Hepatic microsome stability assay, MLM; format: in vitro ADME, monkey; settings: predicted hepatic clearance
Procedure: (§2) A hepatic microsome stability assay was conducted to investigate the metabolic disposition of ammoxetine. In this assay, 100 μL of ammoxetine (2.5 μmol/L) was incubated at 37°C with 100 μL of liver microsomes (RLM, DLM, MLM, or HLM) formulated in a 5 mmol/L dipotassium hydrogen phosphate (K2HPO4) buffer at pH 7.4. The concentration of microsomes was 0.5 g/L. To initiate the incubations, 50 μL of NADPH solution preincubated at 37°C was added. […] Parallel triplicate samples were prepared for each time point, including 0, 2, 5, 10, 15, 30, 60, 90, and 120 min. To stop the reactions at each time point, 250 μL of ice-cold precipitating agent (acetonitrile/methanol, 1:1, v/v) containing 500 ng/mL of L-phencynonate (IS) was added to the incubation mixture. The samples were vortexed for 2 min at 4°C and then centrifuged at 13,800×g for 10 min. The supernatants were analyzed using an LC-MS-MS approach. […]
(§3) In Formula 3, t1/2 (min) represents the half-life of ammoxetine in liver microsomes. It is calculated by dividing −0.693 by the resulting slope (k e) obtained from a natural logarithm plot of the remaining concentration of ammoxetine against incubation time. […]

[1] = Hepatic microsome stability assay, MLM; format: in vitro ADME, monkey; settings: monkey, liver microsomes, pH 7.4; 1 μmol/L, 0.2 g/L microsomes, NADPH
Procedure: as §2, §3

[2] = Stability of ammoxetine in rat plasma (method validation); format: in vitro ADME
Procedure: LC-MS-MS methods were developed and validated to accurately quantify ammoxetine in rat and beagle dog plasma, as well as in rat tissues, urine, feces, and bile. The methods involved direct protein precipitation using methanol, providing a straightforward and rapid sample preparation process with high extraction recovery rates (absolute recoveries >85% in all matrices). […] The precision and accuracy of the plasma methods were evaluated through intra-day and inter-day analyses, yielding satisfactory results. Additionally, stability tests conducted in rat and beagle dog plasma met the analytical requirements for determination. Furthermore, the majority of the analytes met the necessary criteria for matrix effects when quantifying ammoxetine in biological samples. The developed methods are well-suited for determining ammoxetine concentrations in rat and beagle dog biological samples, enabling in vivo studies of this compound. They provide specific and highly sensitive quantification, facilitating investigations into the drug’s behavior in vivo. Detailed results regarding the establishment and validation of these analytical methods can be found in Supplementary Data Sheet 2.

CNCC[C@H](Oc1cccc2c1OCO2)c1cccs1 [ammoxetine]
IC50 (CYP 2C19): > 100 µM | IC50 (CYP 3A4): > 100 µM | IC50 (CYP 2C9): > 100 µM | CL h (MLM): 40.73 ± 0.04 mL/min/kg | half-life at 1 μmol/L [1]: 7.57 ± 0.12 min | Stability in rat plasma, Measured (%) ([2]; 5 ng/mL, -30℃ for 15d): 106.00±2.00% | Stability in rat plasma, Measured (%) ([2]; 5 ng/mL, in auto-sampler for 24h): 114.00±10.00% | Stability in rat plasma, Measured (%) ([2]; 5 ng/mL, room temperature for 4h): 94.00±6.00% | Stability in rat plasma, Measured (%) ([2]; 100 ng/mL, -30℃ for 15d): 105.90±8.30% | Stability in rat plasma, Measured (%) ([2]; 100 ng/mL, in auto-sampler for 24h): 111.20±5.90% | Stability in rat plasma, Measured (%) ([2]; 100 ng/mL, room temperature for 4h): 108.90±7.40% | Stability in rat plasma, Measured (%) ([2]; 800 ng/mL, -30℃ for 15d): 111.74±2.73% | Stability in rat plasma, Measured (%) ([2]; 800 ng/mL, in auto-sampler for 24h): 106.49±0.78% | Stability in rat plasma, Measured (%) ([2]; 800 ng/mL, room temperature for 4h): 114.33±0.73%
